Patent publication US20140315889A1, “HYDROXAMATE DERIVATIVES FOR HDAC INHIBITOR, AND THE PHARMACEUTICAL COMPOSITION COMPRISING THEREOF” (CHONG KUN DANG PHARMACEUTICAL CORP., priority 2011, published 2014)

Experiments:
Human recombinant HDAC1 = target: T1, Human recombinant HDAC1 (Homo sapiens, UniProt Q13547); test: HDAC enzyme activity test, HDAC1; format: biochemical; details: Table 12; read-out: Inhibition ability (IC50) HDAC1
T1 construct: purchased Enzo Life Science Co. (named for the kit; assigned to the enzyme from the BML- catalogue prefix) BML-SE456
Description: (§1) Then, 0.3 μg of enzyme and 10 μM of substrate per well were added, reacted at 30° C. for 60 minutes. Thereto, Fluor de Lys® Developer II (BML-KI176) was added and reacted for 30 minutes. […] From the data, the respective IC50 were calculated by GraphPad Prism 4.0 program.

human recombinant HDAC6 = target: T2, human recombinant HDAC6 (Homo sapiens, UniProt Q9UBN7); test: HDAC enzyme activity test, HDAC6; format: biochemical; details: Table 12; for Selectivity for HDAC6, HD1/HD6: ratio HDAC1 IC50 / HDAC6 IC50; for IC50: read-out: Inhibition ability (IC50) HDAC6
T2 construct: purchased Calibiochem Co. (so in the source) 382180
T2 sequence (Q9UBN7 1-1215): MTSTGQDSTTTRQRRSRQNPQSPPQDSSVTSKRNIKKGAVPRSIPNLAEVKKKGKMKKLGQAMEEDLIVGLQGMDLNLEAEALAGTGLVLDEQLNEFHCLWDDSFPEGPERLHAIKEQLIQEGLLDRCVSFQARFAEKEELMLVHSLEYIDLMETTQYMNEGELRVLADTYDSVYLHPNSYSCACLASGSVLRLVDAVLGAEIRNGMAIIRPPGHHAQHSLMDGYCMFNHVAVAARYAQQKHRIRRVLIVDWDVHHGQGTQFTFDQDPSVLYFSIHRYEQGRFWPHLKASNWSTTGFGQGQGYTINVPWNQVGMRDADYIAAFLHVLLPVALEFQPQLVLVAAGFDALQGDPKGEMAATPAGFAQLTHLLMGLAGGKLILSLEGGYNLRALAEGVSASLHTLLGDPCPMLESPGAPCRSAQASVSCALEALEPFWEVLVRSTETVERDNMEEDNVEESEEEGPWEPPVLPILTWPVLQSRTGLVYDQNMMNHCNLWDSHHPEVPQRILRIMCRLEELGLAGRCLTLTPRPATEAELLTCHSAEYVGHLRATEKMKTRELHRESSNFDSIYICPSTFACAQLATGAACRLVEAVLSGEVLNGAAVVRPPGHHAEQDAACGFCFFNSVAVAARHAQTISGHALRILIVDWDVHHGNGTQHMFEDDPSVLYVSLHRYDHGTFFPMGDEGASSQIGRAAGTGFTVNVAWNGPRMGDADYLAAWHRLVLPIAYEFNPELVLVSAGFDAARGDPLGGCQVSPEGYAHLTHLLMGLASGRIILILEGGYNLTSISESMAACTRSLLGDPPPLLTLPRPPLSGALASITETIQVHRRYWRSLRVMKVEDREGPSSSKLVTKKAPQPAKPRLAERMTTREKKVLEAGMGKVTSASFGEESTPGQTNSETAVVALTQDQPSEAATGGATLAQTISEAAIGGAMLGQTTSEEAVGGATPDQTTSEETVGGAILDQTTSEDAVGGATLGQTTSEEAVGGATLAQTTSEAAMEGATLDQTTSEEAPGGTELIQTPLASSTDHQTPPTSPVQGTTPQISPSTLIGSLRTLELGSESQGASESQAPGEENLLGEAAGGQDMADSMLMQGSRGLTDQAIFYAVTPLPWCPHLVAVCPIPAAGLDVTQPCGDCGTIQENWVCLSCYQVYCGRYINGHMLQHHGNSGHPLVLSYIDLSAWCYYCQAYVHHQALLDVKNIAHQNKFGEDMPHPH
Description: as §1

T1 sequence (Q13547 whole entry): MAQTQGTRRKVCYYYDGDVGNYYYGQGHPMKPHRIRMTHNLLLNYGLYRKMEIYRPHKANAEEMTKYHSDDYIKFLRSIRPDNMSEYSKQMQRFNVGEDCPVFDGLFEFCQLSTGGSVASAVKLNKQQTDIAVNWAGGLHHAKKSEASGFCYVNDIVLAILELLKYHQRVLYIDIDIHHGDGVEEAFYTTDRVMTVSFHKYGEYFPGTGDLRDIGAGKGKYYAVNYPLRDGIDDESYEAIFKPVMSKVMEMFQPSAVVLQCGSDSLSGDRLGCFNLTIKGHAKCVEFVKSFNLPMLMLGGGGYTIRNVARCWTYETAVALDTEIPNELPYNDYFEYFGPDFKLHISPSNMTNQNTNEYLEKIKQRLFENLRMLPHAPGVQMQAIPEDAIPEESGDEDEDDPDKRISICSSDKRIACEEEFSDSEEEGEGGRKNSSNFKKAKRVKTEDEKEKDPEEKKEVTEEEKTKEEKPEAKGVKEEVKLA

SMILES | IC50 (Human recombinant HDAC1) [nM] | Selectivity for HDAC6, HD1/HD6 (human recombinant HDAC6) | IC50 (human recombinant HDAC6) [nM]
O=C(NO)c1ccc(Cn2c3c(c4ccccc42)C(=O)C(CN2CCCC2)CC3)cc1 (stereo not drawn) [Compound 88, N-hydroxy-4-((4-oxo-3-(pyrrolidin-1-ylmethyl)-1,2,3,4-tetrahydrocarbazol-9-yl)methyl)benzamide] | 3970 | 358.7 | 11.1
O=C(NO)c1ccc(Cn2c3c(c4ccccc42)C(=O)CCC3)cc1 [Compound 99, N-hydroxy-4-((4-oxo-1,2,3,4-tetrahydrocarbazol-9-yl)methyl)benzamide] | 2680 | 163.9 | 16.4
Cc1nn(Cc2ccc(C(=O)NO)cc2)c2c1C(=O)CC(C)(C)C2 [Compound 101, N-hydroxy-4-((3,6,6-trimethyl-4-oxo-4,5,6,7-tetrahydroindazol-1-yl)methyl)benzamide] | 1650 | 135.1 | 12.2
CC1CN(CC2CCc3c(c4ccccc4n3Cc3ccc(C(=O)NO)cc3)C2=O)CC(C)O1 (stereo not drawn) [Compound 110, 4-((3-((2,6-dimethylmorpholino)methyl)-4-oxo-1,2,3,4-tetrahydrocarbazol-9-yl)methyl)-N-hydroxybenzamide] | 896 | 80 | 11.2
CN1CCN(CC2CCc3c(c4ccccc4n3Cc3ccc(C(=O)NO)cc3)C2=O)CC1 (stereo not drawn) [Compound 111, N-hydroxy-4-((3-((4-methylpiperazin-1-yl)methyl)-4-oxo-1,2,3,4-tetrahydrocarbazol-9-yl)methyl)benzamide] | 4140 | 338.2 | 12.2
CCN1CCN(CC2CCc3c(c4ccccc4n3Cc3ccc(C(=O)NO)cc3)C2=O)CC1 (stereo not drawn) [Compound 112, 4-((3-((4-ethylpiperazin-1-yl)methyl)-4-oxo-1,2,3,4-tetrahydrocarbazol-9-yl)methyl)-N-hydroxy benzamide] | 4620 | 310.6 | 14.9
CC(C)N1CCN(CC2CCc3c(c4ccccc4n3Cc3ccc(C(=O)NO)cc3)C2=O)CC1 (stereo not drawn) [Compound 113, N-hydroxy-4-((3-((4-isopropylpiperazin-1-yl)methyl)-4-oxo-1,2,3,4-tetrahydrocarbazol-9-yl)methyl)benzamide] | 2440 | 287.1 | 8.5
COCCN1CCN(CC2CCc3c(c4ccccc4n3Cc3ccc(C(=O)NO)cc3)C2=O)CC1 (stereo not drawn) [Compound 114] | 5790 | 327.1 | 17.7
O=C(NO)c1ccc(Cn2c3c(c4ccccc42)C(=O)C(CN2CC(F)(F)C2)CC3)cc1 (stereo not drawn) [Compound 121, 4-((3-((3,3-difluoroazetidin-1-yl)methyl)-4-oxo-1,2,3,4-tetrahydrocarbazol-9-yl)methyl)-N-hydroxybenzamide] | 3720 | 437.3 | 8.51
CC1(C)Cc2c(c3ccccc3n2Cc2ccc(C(=O)NO)cc2)C(=O)C1CN1CCOCC1 (stereo not drawn) [Compound 122, 4-((2,2-dimethyl-3-(morpholinomethyl)-4-oxo-1,2,3,4-tetrahydrocarbazol-9-yl)methyl)-N-hydroxybenzamide] | 6270 | 153 | 41
O=C(NO)c1ccc(Cn2c3c(c4ccccc42)C(=O)C(CN2CCC(F)(F)C2)CC3)cc1 (stereo not drawn) [Compound 123, 4-((3-((3,3-difluoropyrrolidin-1-yl)methyl)-4-oxo-1,2,3,4-tetrahydrocarbazol-9-yl)methyl)-N-hydroxybenzamide] | 3570 | 539.8 | 6.61
Cc1nccn1CC1C(=O)c2c(n(Cc3ccc(C(=O)NO)cc3)c3ccccc23)CC1(C)C (stereo not drawn) [Compound 126, 4-((2,2-dimethyl-3-((2-methyl-1H-imidazol-1-yl)methyl)-4-oxo-1,2,3,4-tetrahydrocarbazol-9-yl)methyl)-N-hydroxybenzamide] | 5800 | 163.3 | 35.5
O=C(NO)c1ccc(Cn2c3c(c4ccccc42)C(=O)C(CN2CCN(c4ccc(F)cc4)CC2)CC3)cc1 (stereo not drawn) [Compound 127, 4-((3-((4-(4-fluorophenyl)piperazin-1-yl)methyl)-4-oxo-1,2,3,4-tetrahydrocarbazol-9-yl)methyl)-N-hydroxybenzamide] | 5300 | 622.7 | 8.51
Cc1ccc(N2CCN(CC3CCc4c(c5ccccc5n4Cc4ccc(C(=O)NO)cc4)C3=O)CC2)cc1C (stereo not drawn) [Compound 128, 4-((3-((4-(3,4-dimethylphenyl)piperazin-1-yl)methyl)-4-oxo-1,2,3,4-tetrahydrocarbazol-9-yl)methyl)-N-hydroxybenzamide] | 8140 | 198.6 | 41
CN(C)CC1C(=O)c2c(n(Cc3ccc(C(=O)NO)cc3)c3ccccc23)CC1(C)C (stereo not drawn) [Compound 129, 4-((3-((dimethylamino)methyl)-2,2-dimethyl-4-oxo-1,2,3,4-tetrahydrocarbazol-9-yl)methyl)-N-hydroxybenzamide] | 4250 | 642.7 | 6.61
CS(=O)(=O)N1CCN(CC2CCc3c(c4ccccc4n3Cc3ccc(C(=O)NO)cc3)C2=O)CC1 (stereo not drawn) [Compound 130, N-hydroxy-4-((3-((4-(methylsulfonyl)piperazin-1-yl)methyl)-4-oxo-1,2,3,4-tetrahydrocarbazol-9-yl)methyl)benzamide] | 2640 | 564.9 | 4.7
CC1(C)CCc2c(c3ccccc3n2Cc2ccc(C(=O)NO)cc2)C1=O [Compound 131, 4-((3,3-dimethyl-4-oxo-1,2,3,4-tetrahydrocarbazol-9-yl)methyl)-N-hydroxybenzamide] | 2690 | 296.6 | 9.1
Cc1cn(Cc2ccc(C(=O)NO)cc2)c2c1C(=O)CC(C)(C)C2 [Compound 136, N-hydroxy-4-((3,6,6-trimethyl-4-oxo-4,5,6,7-tetrahydro-1H-indol-1-yl)methyl)benzamide] | 3260 | 380.3 | 8.58
CC(C)(C)OC(=O)N1CCN(CC2CCc3c(c4ccccc4n3Cc3ccc(C(=O)NO)cc3)C2=O)CC1 (stereo not drawn) [Compound 140, tert-butyl 4-((9-(4-(hydroxycarbamoyl)benzyl)-4-oxo-2,3,4,9-tetrahydro-1H-carbazol-3-yl)methyl)piperazine-1-carboxylate] | 5900 | 325.2 | 18.1
O=C(NO)c1ccc(Cn2c3c(c4cc(F)ccc42)C(=O)C(CN2CCOCC2)CC3)cc1 (stereo not drawn) [Compound 141, 4-((6-fluoro-3-(morpholinomethyl)-4-oxo-1,2,3,4-tetrahydrocarbazol-9-yl)methyl)-N-hydroxybenzamide] | 4140 | 850.7 | 4.9
CC(C)(C)OC(=O)N1CCN(CC2CCc3c(c4cc(F)ccc4n3Cc3ccc(C(=O)NO)cc3)C2=O)CC1 (stereo not drawn) [Compound 144, tert-butyl 4-((6-fluoro-9-(4-(hydroxycarbamoyl)benzyl)-4-oxo-2,3,4,9-tetrahydro-1H-carbazol-3-yl)methyl)piperazin-1-carboxylate] | 8410 | 310.9 | 27.1
O=C(NO)c1ccc(Cn2c3c(c4cc(F)ccc42)C(=O)C(CN2CC(F)(F)C2)CC3)cc1 (stereo not drawn) [Compound 145, 4-((3-((3,3-difluoroazetidin-1-yl)methyl)-6-fluoro-4-oxo-1,2,3,4-tetrahydrocarbazol-9-yl)methyl)-N-hydroxybenzamide] | 7230 | 925.1 | 7.8
